Measured values: patent US8106055B2, “Substituted amide compounds” (Gruenenthal GmbH, priority 2007, dated 2012)
Where two headings read alike, the source gives them in different places.

Assays:
[1] = molecular target: T1, bradykinin 1 receptor (B1R) of the rat (Rattus norvegicus, UniProt P97583); assay: Functional investigation on the rat bradykinin 1 receptor (B1R), Ca2+ FLIPR assay in CHO K1 rB1R cells; type: cell-based; conditions: CHO-K1, read-out: B1R Ant. r [10 μM] % Inhibition
T1 construct: expressed in transfected cells; host or cells: CHO K1 cells
T1 sequence (P97583 1-337): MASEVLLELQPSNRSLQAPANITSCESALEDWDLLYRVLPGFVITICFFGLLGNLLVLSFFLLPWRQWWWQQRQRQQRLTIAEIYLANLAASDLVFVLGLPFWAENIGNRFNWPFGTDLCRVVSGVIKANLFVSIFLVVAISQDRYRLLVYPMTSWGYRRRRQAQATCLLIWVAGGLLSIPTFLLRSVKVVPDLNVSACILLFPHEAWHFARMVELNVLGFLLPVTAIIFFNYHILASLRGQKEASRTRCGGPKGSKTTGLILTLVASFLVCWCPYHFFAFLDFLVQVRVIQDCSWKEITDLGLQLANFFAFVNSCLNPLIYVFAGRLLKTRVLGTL
Excerpt: (§1) Functional Investigation on the Human Bradykinin 1 Receptor (B1R)
(§2) The agonistic or antagonistic action of substances can be determined on the bradykinin 1 receptor (B1R) of the human species and rats with the following assay. In accordance with this assay, the Ca^2+ inflow through the channel is quantified with the aid of a Ca^2=-sensitive dyestuff (type Fluo-4, Molecular Probes Europe BV, Leiden, Holland) in a fluorescent imaging plate reader (FLIPR, Molecular Devices, Sunnyvale, USA).
(§3) Chinese hamster ovary cells (CHO K1 cells) transfected stably with the human B1R gene (hB1R cells) or the B1R gene of the rat (rB1R cells) are used. For functional studies, these cells are plated out on black 96-well plates with a clear base (BD Biosciences, Heidelberg, Germany or Greiner, Frickenhausen, Germany) in a density of 20,000-35,000 cells/well. The cells are left overnight at 37° C. and 5% CO2 in culture medium (hB1R cells: Nutrient Mixture Ham's F12, Gibco Invitrogen GmbH, Karlsruhe, Germany or DMEM, Sigma-Aldrich, Taufkirchen, Germany; rB1R cells: D-MEM/F12, Gibco Invitrogen GmbH, Karlsruhe, Germany) with 10 vol. % of FBS (foetal bovine serum, Gibco Invitrogen GmbH, Karlsruhe, Germany or PAN Biotech GmbH, Aidenbach, Germany).
(§4) On the following day, the cells are loaded for 60 min at 37° C. with 2.13 μM Fluo-4 (Molecular Probes Europe BV, Leiden, The Netherlands) in HBSS buffer (Hank's buffered saline solution, Gibco Invitrogen GmbH, Karlsruhe, Germany) with 2.5 mM probenecid (Sigma-Aldrich, Taufkirchen, Germany) and 10 mM HEPES (Sigma-Aldrich, Taufkirchen, Germany). The plates are then washed 2× with HBSS buffer, and HBSS buffer which additionally contains 0.1% of BSA (bovine serum albumin; Sigma-Aldrich, Taufkirchen, Germany), 5.6 mM glucose and 0.05% of gelatine (Merck KGaA, Darmstadt, Germany) is added. After a further incubation of 20 minutes at room temperature, the plates are inserted into the FLIPR for the Ca^2+ measurement.
(§5) Alternatively, the plates are washed with buffer A (15 mM HEPES, 80 mM NaCl, 5 mM KCl, 1.2 mM CaCl2, 0.7 mM MgSO4, 2 g/l glucose, 2.5 mM probenecid), buffer A is added and the plates are loaded with 2.5 μM Fluo-4 and 0.025% of Pluronic F127 (Sigma-Aldrich, Taufkirchen, Germany). Thereafter, the cells are washed 2× with buffer A and incubated for 30 minutes with buffer A, which additionally contains 0.05% of BSA and 0.05% of gelatine, at room temperature and thereafter inserted into the FLIPR for the Ca^2+ measurement.
(§6) The Ca^2+-dependent fluorescence is measured before and after addition of substances (λex=488 nm, λem=540 nm). Quantification is by measurement of the highest fluorescence intensity (FC, fluorescence counts) over time.
(§7) The FLIPR protocol consists of 2 additions of substance. Test substances (10 μM) are first pipetted on to the cells and the Ca^2+ inflow is compared with the control (hB1R: Lys-Des-Arg^9-bradykinin >=50 nM; rB1R: Des-Arg^9-bradykinin 10 μM). This gives the information in % activation based on the Ca^2+ signal after addition of Lys-Des-Arg^9-bradykinin (>=50 nM) or Des-Arg^9-bradykinin (10 μM).
(§8) After incubation for 10-20 minutes, Lys-Des-Arg^9-bradykinin (hB1R) or Des-Arg^9-bradykinin (rB1R) is applied in the concentration of the EC80 and the inflow of Ca^2+ is likewise determined.
(§9) Antagonists lead to a suppression of the Ca^2+ inflow. % inhibition compared with the maximum achievable inhibition is calculated.
(§10) To determine the IC50 value, the substances are added in various concentrations. Duplicate or triplicate determinations (n=2 or n=3) are carried out, and these are repeated in at least one further independent experiment (N>=2).
(§11) Preferably, the compounds have a B1R antagonistic action on the human receptor and/or on the rat receptor. The following data are given by way of example in the following table: (In this, “B1R Ant. h” represents “B1R antagonism human” and “B1R Ant. r” represents “B1R antagonism rat”)

[2] = molecular target: T2, human bradykinin 1 receptor (B1R) (Homo sapiens, UniProt P46663); assay: Functional investigation on the human bradykinin 1 receptor (B1R), Ca2+ FLIPR assay in CHO K1 hB1R cells; type: cell-based; conditions: for B1R Ant. h [10 μM] % Inhibition: B1R antagonism human
T2 construct: expressed in transfected cells; host or cells: CHO K1 cells
T2 sequence (P46663 1-353): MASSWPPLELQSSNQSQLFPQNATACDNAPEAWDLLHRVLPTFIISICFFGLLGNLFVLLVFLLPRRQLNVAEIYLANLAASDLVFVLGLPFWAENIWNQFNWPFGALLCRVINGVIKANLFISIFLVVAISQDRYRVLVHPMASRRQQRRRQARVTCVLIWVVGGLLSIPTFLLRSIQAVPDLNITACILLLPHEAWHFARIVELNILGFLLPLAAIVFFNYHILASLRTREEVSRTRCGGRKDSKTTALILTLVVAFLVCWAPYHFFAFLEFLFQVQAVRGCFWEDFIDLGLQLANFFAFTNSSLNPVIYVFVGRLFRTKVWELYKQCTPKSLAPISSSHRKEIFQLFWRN
Excerpt: as §1, §2, §3, §4, §5, §6, §7, §8, §9, §10, §11

human μ opiate receptor = molecular target: T3, human μ opiate receptor (Homo sapiens, UniProt P35372); assay: Affinity for the human μ opiate receptor ([3H]-naloxone displacement, CHO-K1 receptor membrane preparation, SPA); type: binding; conditions: test concentration of 1 μM
T3 construct: purchased PerkinElmer Life Sciences, Zaventem, Belgium RB-HOM; host or cells: CHO-K1 cells (membrane preparation)
T3 sequence (P35372 whole entry): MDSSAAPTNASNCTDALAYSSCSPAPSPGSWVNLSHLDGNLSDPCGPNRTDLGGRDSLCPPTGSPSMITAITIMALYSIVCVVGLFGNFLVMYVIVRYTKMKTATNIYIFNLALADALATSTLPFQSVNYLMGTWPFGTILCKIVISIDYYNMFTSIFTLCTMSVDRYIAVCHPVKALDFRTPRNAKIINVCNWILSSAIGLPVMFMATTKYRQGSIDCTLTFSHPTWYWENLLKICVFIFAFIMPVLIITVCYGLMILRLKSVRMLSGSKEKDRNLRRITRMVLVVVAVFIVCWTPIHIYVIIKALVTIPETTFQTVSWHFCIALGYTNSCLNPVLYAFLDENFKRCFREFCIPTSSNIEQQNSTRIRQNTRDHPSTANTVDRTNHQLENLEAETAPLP
Procedure: Binding data of the compounds on the μ opioid receptor and data on the inhibition of reuptake of serotonin (5-HT) are given in Table 1. The data for the μ receptor were measured at a test concentration of 1 μM, and those for the serotonin reuptake at 10 μM. The values are stated in % inhibition.
Investigation of the Activity of the Compounds of the Invention Method for Determining the Affinity for the Human μ Opiate Receptor
The receptor affinity for the human p opiate receptor is determined in a homogeneous set-up in microtitre plates. For this, dilution series of the substances to be tested are incubated with a receptor membrane preparation (15-40 μg of protein/250 μl of incubation batch) of CHO-K1 cells which express the human p opiate receptor (RB-HOM receptor membrane preparation from PerkinElmer Life Sciences, Zaventem, Belgium) in the presence of 1 nmol/l of the radioactive ligand [^3H]-naloxone (NET719, PerkinElmer Life Sciences, Zaventem, Belgium) and 1 mg of WGA-SPA-Beads (wheat germ agglutinin SPA beads from Amersham/Pharmacia, Freiburg, Germany) in a total volume of 250 μl for 90 minutes at room temperature. 50 mmol/l of Tris-HCl supplemented with 0.06% of bovine serum albumin is used as the incubation buffer. 100 μmol/l of naloxone are additionally added for determination of the non-specific binding. After the end of the ninety-minute incubation time, the microtitre plates are centrifuged for 20 minutes at 1,000 g and the radioactivity is measured in a β-counter (Microbeta-Trilux, PerkinElmer Wallac, Freiburg, Germany). The percentage displacement of the radioactive ligand from its binding to the human p opiate receptor is determined at a concentration of the test substances of 1 μmol/l and stated as the percentage inhibition of the specific binding. Starting from the percentage displacement by various concentrations of the test substances, IC50 inhibitory concentrations which cause a 50 percent displacement of the radioactive ligand are calculated. By conversion by means of the Cheng-Prusoff relationship, Ki values for the test substances are obtained.

[3] = CHO-K1, B1R antagonism human, test substance 10 μM, Ca2+ FLIPR, CHO K1 hB1R cells, read-out: B1R Ant. h [10 μM] % Inhibition
[4] = test substance 10 μM, Ca2+ FLIPR, CHO K1 hB1R cells

## CN(C)C(c1ccccc1)C1CCC(NC(=O)CCNC(=O)c2nc(-c3cc(Cl)cc(Cl)c3)no2)CC1 (centres unmarked) [Example 761, 3-(3,5-dichloro-phenyl)-[1,2,4]oxadiazole-5-carboxylic acid {2-[4-(dimethylamino-phenyl-methyl)-cyclohexylcarbamoyl]-ethyl}-amide]
[1]
  inhibition at 10 µM: 15%
[2]; CHO-K1, read-out: B1R Ant. h [10 μM] % Inhibition
  inhibition at 10 µM: 34%

## Cc1ccc(S(=O)(=O)N2CCC(OCC(=O)NC3CCC(C(c4ccccc4)N(C)C)CC3)C2)cc1 (centres unmarked) [Example 123, N-(4-((dimethylamino)(phenyl)methyl)cyclohexyl)-2-(1-tosylpyrrolidin-3-yloxy)acetamide]
Human μ opiate receptor; read-out: μ (binding on the μ opioid receptor, % inhibition)
  inhibition at 1 µM: 27%
[2]; [3]
  inhibition at 10 µM: -6%

## COc1ccc(S(=O)(=O)N(C)CCOCC(=O)NC2CCC(C(c3ccccc3)N(C)C)CC2)cc1OC (centres unmarked) [Example 592]
Human μ opiate receptor
  μ (binding on the μ opioid receptor, % inhibition): 83%
[2]; [4]
  B1R Ant. h [10 μM] % Inhibition: 1%

## CN(C)C(c1ccccc1)C1CCC(NC(=O)COCCN(C)S(=O)(=O)c2ccc(Cl)cc2)CC1 (centres unmarked) [Example 589]
Human μ opiate receptor
  μ (binding on the μ opioid receptor, % inhibition): 25%
[2]; [4]
  B1R Ant. h [10 μM] % Inhibition: 28%

## CN(C)C(CCc1ccccc1)C1CCC(NC(=O)CNC(=O)c2nc(-c3ccc(Cl)cc3Cl)no2)CC1 (centres unmarked) [Example 795, 3-(2,4-dichloro-phenyl)-[1,2,4]oxadiazole-5-carboxylic acid {[4-(1-dimethylamino-3-phenyl-propyl)-cyclohexylcarbamoyl]-methyl}-amide]
[2]; [3]
  inhibition at 10 µM: 103%

## COc1ccc(S(=O)(=O)N(C)CCOCC(=O)NC2CCC(C(c3ccccc3)N(C)C)CC2)cc1 (centres unmarked) [Example 590]
Human μ opiate receptor
  μ (binding on the μ opioid receptor, % inhibition): 75%
[2]; [4]
  B1R Ant. h [10 μM] % Inhibition: −1%

## CC(Oc1ccccc1)C(=O)NC1CCC(C(c2ccc(F)cc2)N(C)C)CC1 (centres unmarked) [Example 516]
Human μ opiate receptor
  μ (binding on the μ opioid receptor, % inhibition): 40%

## CN(C)C(c1ccccc1)C1CCC(NC(=O)COC2CCN(S(=O)(=O)c3ccccc3)C2)CC1 (centres unmarked) [Example 595]
Human μ opiate receptor
  μ (binding on the μ opioid receptor, % inhibition): 51%
[2]; [4]
  B1R Ant. h [10 μM] % Inhibition: 15%

## Cc1ccc(F)cc1-c1noc(C(=O)NCC(=O)NC2CCC(C(CCc3ccccc3)N(C)C)CC2)n1 (centres unmarked) [Example 796, 3-(5-fluoro-2-methyl-phenyl)-[1,2,4]oxadiazole-5-carboxylic acid {[4-(1-dimethylamino-3-phenyl-propyl)-cyclohexylcarbamoyl]-methyl}-amide]
[2]; [3]
  inhibition at 10 µM: 94%

## CN(C)C(c1ccccc1)C1CCC(NC(=O)COC2CCN(S(=O)(=O)c3ccc(Cl)cc3Cl)C2)CC1 (centres unmarked) [Example 596]
Human μ opiate receptor
  μ (binding on the μ opioid receptor, % inhibition): 84%
[2]; [4]
  B1R Ant. h [10 μM] % Inhibition: 32%

## CN(C)C(c1ccccc1)C1CCC(NC(=O)COCCN(C)S(=O)(=O)c2cccc(C(F)(F)F)c2)CC1 (centres unmarked) [Example 593]
Human μ opiate receptor
  μ (binding on the μ opioid receptor, % inhibition): 91%
[2]; [4]
  B1R Ant. h [10 μM] % Inhibition: 56%

## CN(C)C(CCc1ccccc1)C1CCC(NC(=O)CCNC(=O)c2nc(-c3cccs3)no2)CC1 (centres unmarked) [Example 797, 3-thiophen-2-yl-[1,2,4]oxadiazole-5-carboxylic acid {2-[4-(1-dimethylamino-3-phenyl-propyl)-cyclohexylcarbamoyl]-ethyl}-amide]
[2]; CHO-K1, B1R antagonism human, test substance 10 μM, % inhibition compared with the maximum achievable inhibition, read-out: B1R Ant. h [10 μM] % Inhibition
  inhibition at 10 µM: 0%

## CN(C)C(c1ccccc1)C1CCC(NC(=O)COCCN(C)S(=O)(=O)c2ccc(OC(F)(F)F)cc2)CC1 (centres unmarked) [Example 594]
Human μ opiate receptor
  μ (binding on the μ opioid receptor, % inhibition): 94%
[2]; [4]
  B1R Ant. h [10 μM] % Inhibition: 20%

## CN(C)C(c1ccccc1)C1CCC(NC(=O)COCCN(C)S(=O)(=O)c2ccccc2)CC1 (centres unmarked) [Example 588]
Human μ opiate receptor
  μ (binding on the μ opioid receptor, % inhibition): 29%
[2]; [4]
  B1R Ant. h [10 μM] % Inhibition: 6%

## CN(C)C(c1ccccc1)C1CCC(NC(=O)COC2CCN(S(=O)(=O)c3ccc(F)cc3)C2)CC1 (centres unmarked) [Example 591]
Human μ opiate receptor
  μ (binding on the μ opioid receptor, % inhibition): 93%
[2]; [4]
  B1R Ant. h [10 μM] % Inhibition: 0%

## COc1ccc(-c2noc(C(=O)NCC(=O)NC3CCC(C(CCc4ccccc4)N(C)C)CC3)n2)cc1OC (centres unmarked) [Example 794, 3-(3,4-dimethoxy-phenyl)-[1,2,4]oxadiazole-5-carboxylic acid {[4-(1-dimethylamino-3-phenyl-propyl)-cyclohexylcarbamoyl]-methyl}-amide]
[2]; [3]
  inhibition at 10 µM: 1%

## CN(C)C(c1ccccc1)C1CCC(NC(=O)COCCN(C)S(=O)(=O)c2ccc(F)cc2)CC1 (centres unmarked) [Example 585]
Human μ opiate receptor
  μ (binding on the μ opioid receptor, % inhibition): 41%
[2]; [4]
  B1R Ant. h [10 μM] % Inhibition: −10%
